These results are taken from patent publication US20260002166A1, “GENETIC ENGINEERING OF MARINE BACTERIA FOR BIOMATERIAL PRODUCTION, PROBIOTIC USE IN AQUACULTURE AND MARINE ENVIRONMENTAL RESTORATION” (San Diego State University (SDSU) Foundation, dba San Diego …, priority 2022, published 2026).

Series [1] concerns Leisingera sp. 204H (NJS204, Wild type). Put plainly: Minimum inhibitory concentration of kanamycin. It counts as cell-based. On the procedure:
(§1) • 1. Streak out marine microbes onto Marine Agar plates and incubate overnight at 25° C.-28° C. Some strains take longer to grow to single colonies. Incubation times longer than 24 hours may be required for some slower growing strains. Monitor growth in future steps accordingly.
(§2) • 2. Inoculate a single colony into 5 mL Marine Broth (2216) media in the late afternoon/early evening. Incubate overnight at 25 C, shaking at 200 rpm.
(§3) • 3. Measure optical density (OD600) of overnight culture growth and document. • 4. Pipette 100 μL of overnight culture from each strain onto Marine Agar plates containing either Strep (for background resistance), Kan (MIC), Gent (MIC) at each concentration (25 μg/mL, 50 μg/mL, 100 μg/mL and 200 μg/mL). • 5. Use beads or plate spreader to spread the culture evenly on the plate. Remove the beads and incubate overnight at 25° C. overnight.
(§4) • 6. Observe and document growth on all concentration plates. For the MICs (Kan/Gent) identify the lowest concentration of media in which no colonies are observed. If there are no colonies at any concentration, screen lower concentrations of Kanamycin/Gentamicin in the media (i.e. 5, 10, 15, 20 μg/mL). • 7. For the Streptomycin Resistant strain, select a single colony from the highest dose of Streptomycin that has growth and streak it out onto a plate containing the same concentration and a plate containing the next highest concentration of antibiotics. Incubate overnight at 25 C.
(§5) • 8. Observe and document growth on both the MIC plates (2 days old) and the Streptomycin resistance plates. If Streptomycin resistance is sustained at less than 200 μg/mL, then continue step 7, passaging the strains onto higher concentrations of antibiotics. Once robust growth occurs at 200 μg/mL, inoculate a single colony into 5 mL Marine Broth containing Strep 200 μg/mL and incubate 25° C. overnight, shaking at 200 rpm.

Series [2] concerns Pseudoalteromonas luteoviolacea HI1 (NJS005, StrR). Put plainly: Minimum inhibitory concentration of kanamycin. It counts as cell-based. The note with it: read-out: MIC Kan. Here is the method: as §1, §2, §3, §4, §5
Series [3] concerns Cobetia sp. MMG (NJS775). Put plainly: Minimum inhibitory concentration of kanamycin. It is filed as cell-based. The note with it: Wild type. Here is the method: as §1, §2, §3, §4, §5
Series [4] relates to Photobacterium mandapamensis svers.3.2 (MT002). Kind of series: Minimum inhibitory concentration of kanamycin. It counts as cell-based. The note with it: Photobacterium leiognathi, Photobacterium mandapamensis svers.3.2, Wild type. On the procedure:
as §1, §2, §3, §4, §5

Series [5] deals with Endozoicomonas montiporae CL-33 (NJS662). Put plainly: Minimum inhibitory concentration of kanamycin. It counts as cell-based. To be noted: Endozoicomonas montiporae CL-33, Wild type. Here is the method: as §1, §2, §3, §4, §5
Series [6] deals with Phaeobacter sp. HS012 (NJS491). Kind of series: Minimum inhibitory concentration of kanamycin. It counts as cell-based. The note with it: Phaeobacter sp. HS012, Wild type. Here is the method: as §1, §2, §3, §4, §5
In series [7] the test system is Pseudoalteromonas sp. PS5 (NJS597, StrR). Put plainly: Minimum inhibitory concentration of kanamycin. It is filed as cell-based. To be noted: read-out: MIC Kan. Here is the method:
as §1, §2, §3, §4, §5

Series [8] has as its system Nereida sp. MMG025 (NJS678). Kind of series: Minimum inhibitory concentration of kanamycin. To be noted: Nereida sp. MMG025, Wild type. It is filed as cell-based. Here is the method: as §1, §2, §3, §4, §5
Series [9] deals with Vibrio harveyi (NJS675, StrR). Kind of series: Minimum inhibitory concentration of kanamycin. It counts as cell-based. To be noted: read-out: MIC Kan. Here is the method: as §1, §2, §3, §4, §5
Series [10] concerns Ruegeria pomeroyi DSS-3 (NJS409). Kind of series: Minimum inhibitory concentration of kanamycin. It counts as cell-based. The note with it: Ruegeria pomeroyi DSS-3, Wild type. Here is the method: as §1, §2, §3, §4, §5
For series [11], the system named is Phaeobacter gallaeciensis ATCC 700781 (DSM 26640) (NJS408, Wild type). Put plainly: Minimum inhibitory concentration of kanamycin. It counts as cell-based. To be noted: Phaeobacter gallaeciensis ATCC 700781, Wild type. Here is the method:
as §1, §2, §3, §4, §5

Series [12] relates to Shimia sp. MMG (NJS302). Put plainly: Minimum inhibitory concentration of kanamycin. To be noted: Wild type. It counts as cell-based. Here is the method:
as §1, §2, §3, §4, §5

Series [13] deals with Pacific and Atlantic corals. To be noted: synthesized TBP; cited from earlier work.
For series [14], the system named is sea urchin. The note with it: [32]; cited from earlier work.
The test system of series [15] is phytoplankton. To be noted: [31]; cited from earlier work.
In series [16] the test system is two other types of invertebrate larvae. To be noted: two other types of invertebrate larvae [29]; cited from earlier work.

In brackets after ≈: the same amount, converted by molar mass.

By MIC is commonly meant the lowest concentration that inhibits growth of the organism. `NC[C@H]1O[C@H](O[C@H]2[C@H](O)[C@@H](O[C@H]3O[C@H](CO)[C@@H](O)[C@H](N)[C@H]3O)[C@H](N)C[C@@H]2N)[C@H](O)[C@@H](O)[C@@H]1O` [Kan, kanamycin]: the MIC in [1] was found to be 200 µg/mL (≈ 413 µM); in series [2], 200 µg/mL (≈ 413 µM); in [3], 200 µg/mL (≈ 413 µM); in [4], 400 µg/mL (≈ 826 µM); in series [5], 100 µg/mL (≈ 206 µM); in [6], 300 µg/mL (≈ 619 µM). The minimal inhibitory concentration (MIC) in [7] stood at 200 µg/mL (≈ 413 µM); in series [8], 200 µg/mL (≈ 413 µM); in [9] it was 200 µg/mL (≈ 413 µM); in series [10] it was 300 µg/mL (≈ 619 µM); in [11], 300 µg/mL (≈ 619 µM); in series [12] it was 300 µg/mL (≈ 619 µM).
Regarding `Brc1[nH]c(Br)c(Br)c1Br` [TBP, tetrabromopyrrole], the “Induction of coral metamorphosis” value in series [13] is listed as “induce robust metamorphosis”. The Sea urchin development result in series [14] is “halts sea urchin development”. Further, the Phytoplankton mortality result in series [15] is listed as “elicits phytoplankton mortality”. Also, the “Metamorphosis in other invertebrate larvae” value in series [16] was “not eliciting robust metamorphosis”.
